Assay results: ChEMBL document CHEMBL1926625, “Identification of benzoxazin-3-one derivatives as novel, potent, and selective nonsteroidal mineralocorticoid receptor antagonists” (J Med Chem, 2011)

Key:
Androgen receptor = target: T1, Androgen receptor (Homo sapiens, UniProt P10275); assay: Displacement of [3H]testosterone from AR
T1 sequence (P10275 whole entry): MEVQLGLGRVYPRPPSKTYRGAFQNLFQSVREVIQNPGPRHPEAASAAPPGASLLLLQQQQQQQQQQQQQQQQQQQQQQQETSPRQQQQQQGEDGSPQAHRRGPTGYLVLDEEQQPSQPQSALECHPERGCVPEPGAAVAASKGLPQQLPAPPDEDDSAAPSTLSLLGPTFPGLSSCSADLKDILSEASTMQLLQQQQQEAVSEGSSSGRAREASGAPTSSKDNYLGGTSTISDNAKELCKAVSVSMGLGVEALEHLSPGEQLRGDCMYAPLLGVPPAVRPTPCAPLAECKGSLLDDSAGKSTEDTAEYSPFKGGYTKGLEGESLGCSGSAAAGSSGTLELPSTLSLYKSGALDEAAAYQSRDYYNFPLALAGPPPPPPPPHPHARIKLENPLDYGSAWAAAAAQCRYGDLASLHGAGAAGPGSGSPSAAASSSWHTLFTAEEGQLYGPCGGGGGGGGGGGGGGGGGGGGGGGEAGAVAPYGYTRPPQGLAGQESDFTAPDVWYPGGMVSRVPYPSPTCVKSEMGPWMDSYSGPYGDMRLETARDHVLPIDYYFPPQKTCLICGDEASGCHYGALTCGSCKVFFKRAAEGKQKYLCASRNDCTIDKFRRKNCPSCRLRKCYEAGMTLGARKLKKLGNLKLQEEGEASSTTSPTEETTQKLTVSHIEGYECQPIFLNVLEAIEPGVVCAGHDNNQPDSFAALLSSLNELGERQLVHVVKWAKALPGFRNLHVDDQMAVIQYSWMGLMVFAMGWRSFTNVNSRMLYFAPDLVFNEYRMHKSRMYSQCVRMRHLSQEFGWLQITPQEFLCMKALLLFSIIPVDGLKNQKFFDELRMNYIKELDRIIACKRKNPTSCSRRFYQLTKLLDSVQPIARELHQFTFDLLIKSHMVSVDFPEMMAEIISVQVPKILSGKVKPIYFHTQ

Progesterone receptor = target: T2, Progesterone receptor (Homo sapiens, UniProt P06401); assay: Displacement of [3H]progesterone from PR
T2 sequence (P06401 whole entry): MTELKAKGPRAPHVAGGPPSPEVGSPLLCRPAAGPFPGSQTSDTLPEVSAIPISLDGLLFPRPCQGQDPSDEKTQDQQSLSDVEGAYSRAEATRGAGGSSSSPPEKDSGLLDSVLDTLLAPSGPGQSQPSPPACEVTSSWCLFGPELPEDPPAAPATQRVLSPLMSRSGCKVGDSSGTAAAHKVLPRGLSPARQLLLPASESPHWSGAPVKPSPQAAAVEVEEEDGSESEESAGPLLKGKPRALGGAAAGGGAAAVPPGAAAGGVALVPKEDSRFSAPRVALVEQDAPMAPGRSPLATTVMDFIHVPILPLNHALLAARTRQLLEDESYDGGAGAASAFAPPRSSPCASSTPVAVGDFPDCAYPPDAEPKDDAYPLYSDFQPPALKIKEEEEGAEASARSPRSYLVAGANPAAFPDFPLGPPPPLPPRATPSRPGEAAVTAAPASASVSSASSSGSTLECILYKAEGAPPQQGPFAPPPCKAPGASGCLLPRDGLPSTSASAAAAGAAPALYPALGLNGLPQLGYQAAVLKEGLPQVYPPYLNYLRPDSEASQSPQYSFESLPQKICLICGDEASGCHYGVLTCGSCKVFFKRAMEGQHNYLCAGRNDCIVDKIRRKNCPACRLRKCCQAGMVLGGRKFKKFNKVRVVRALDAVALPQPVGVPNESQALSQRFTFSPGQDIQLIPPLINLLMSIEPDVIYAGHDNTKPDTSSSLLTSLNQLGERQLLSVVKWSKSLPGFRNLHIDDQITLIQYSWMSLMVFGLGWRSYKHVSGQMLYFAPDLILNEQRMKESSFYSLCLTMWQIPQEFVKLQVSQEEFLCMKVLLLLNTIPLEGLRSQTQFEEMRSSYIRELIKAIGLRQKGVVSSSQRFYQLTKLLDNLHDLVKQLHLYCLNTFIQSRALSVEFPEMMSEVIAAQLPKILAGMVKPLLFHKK

Glucocorticoid receptor = target: T3, Glucocorticoid receptor (Homo sapiens, UniProt P04150); assay: Displacement of [3H]dexomethasone from GR
T3 sequence (P04150 whole entry): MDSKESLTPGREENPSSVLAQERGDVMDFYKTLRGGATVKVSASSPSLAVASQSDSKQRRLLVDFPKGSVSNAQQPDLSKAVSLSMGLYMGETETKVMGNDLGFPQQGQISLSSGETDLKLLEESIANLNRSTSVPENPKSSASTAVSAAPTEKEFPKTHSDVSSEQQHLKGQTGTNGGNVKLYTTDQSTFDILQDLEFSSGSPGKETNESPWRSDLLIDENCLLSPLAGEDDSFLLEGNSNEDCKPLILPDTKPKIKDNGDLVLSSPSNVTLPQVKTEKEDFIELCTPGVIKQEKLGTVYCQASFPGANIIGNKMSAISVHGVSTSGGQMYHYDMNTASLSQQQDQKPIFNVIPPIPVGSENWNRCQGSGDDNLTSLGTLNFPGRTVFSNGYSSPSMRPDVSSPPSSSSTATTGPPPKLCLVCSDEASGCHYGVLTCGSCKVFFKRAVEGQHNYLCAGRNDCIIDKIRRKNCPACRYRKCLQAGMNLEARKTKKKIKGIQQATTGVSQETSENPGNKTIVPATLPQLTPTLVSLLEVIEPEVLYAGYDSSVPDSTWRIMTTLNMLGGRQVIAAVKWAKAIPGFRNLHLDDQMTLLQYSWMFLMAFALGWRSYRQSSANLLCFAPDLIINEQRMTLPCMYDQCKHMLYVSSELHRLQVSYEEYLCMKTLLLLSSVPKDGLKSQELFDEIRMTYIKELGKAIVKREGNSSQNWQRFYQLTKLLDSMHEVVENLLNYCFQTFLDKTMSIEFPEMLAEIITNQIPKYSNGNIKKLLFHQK

[1] = target: T4, Mineralocorticoid receptor (Homo sapiens, UniProt P08235); assay: biochemical
T4 sequence (P08235 whole entry): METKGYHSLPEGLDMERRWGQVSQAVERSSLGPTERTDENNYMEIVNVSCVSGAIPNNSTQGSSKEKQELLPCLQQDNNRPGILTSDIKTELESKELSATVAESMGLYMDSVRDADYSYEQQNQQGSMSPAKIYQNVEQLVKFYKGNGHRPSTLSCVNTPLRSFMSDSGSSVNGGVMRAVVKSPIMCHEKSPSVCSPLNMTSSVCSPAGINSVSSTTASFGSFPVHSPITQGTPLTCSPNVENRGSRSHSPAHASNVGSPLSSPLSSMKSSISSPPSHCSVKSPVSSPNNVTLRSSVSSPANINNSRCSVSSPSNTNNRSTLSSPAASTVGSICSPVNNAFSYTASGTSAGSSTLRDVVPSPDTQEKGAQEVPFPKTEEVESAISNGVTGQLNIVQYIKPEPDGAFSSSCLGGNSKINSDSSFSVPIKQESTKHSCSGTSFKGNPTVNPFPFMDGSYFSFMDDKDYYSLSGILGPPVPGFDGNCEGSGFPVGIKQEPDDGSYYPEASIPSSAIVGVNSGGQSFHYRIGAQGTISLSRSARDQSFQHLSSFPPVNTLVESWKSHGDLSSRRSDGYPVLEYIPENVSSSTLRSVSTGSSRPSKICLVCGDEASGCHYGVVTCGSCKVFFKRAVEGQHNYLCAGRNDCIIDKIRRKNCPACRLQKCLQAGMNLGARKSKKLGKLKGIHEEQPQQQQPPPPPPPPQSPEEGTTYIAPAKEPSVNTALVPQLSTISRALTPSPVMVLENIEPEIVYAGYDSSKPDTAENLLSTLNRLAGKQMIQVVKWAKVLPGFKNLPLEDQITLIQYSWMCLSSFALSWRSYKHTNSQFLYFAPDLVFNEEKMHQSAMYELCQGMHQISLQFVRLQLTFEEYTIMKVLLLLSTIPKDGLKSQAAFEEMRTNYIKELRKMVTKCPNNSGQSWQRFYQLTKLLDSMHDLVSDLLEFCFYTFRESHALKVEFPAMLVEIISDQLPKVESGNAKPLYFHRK
Description: Displacement of [3H]aldosterone from cytosolic human MR expressed in HEK293 cells after 16 hrs by scintillation counting

[2] = target: T4, Mineralocorticoid receptor
Description: Antagonist activity at human MR transfected in human COS1 cells after 1 day by luciferase reporter gene assay

[3] = Clearance in rat liver microsomes at 1 umol/L preincubated for 5 mins measured after 60 mins by UV analysis; assay type: ADME, Microsome
[4] = Bioavailability in Sprague-Dawley rat at 3 mg/kg, iv and 10 mg/kg, po; assay type: ADME, organism-based; settings: in vivo

Compound	IC50 (Androgen receptor)	IC50 (Progesterone receptor)	IC50 (Glucocorticoid receptor)	IC50 [1]	IC50 [2]	microsomal CLint at 1 µM [3]	bioavailability [4]
O=C1COc2ccc(-c3cc(C(F)(F)F)nn3-c3ccc(Cl)cc3)cc2N1	–	–	–	320 nM	–	–	–
O=C1COc2ccc(-c3cc(C(F)(F)F)nn3-c3ccccc3Cl)cc2N1	–	–	–	430 nM	–	–	–
Cc1ccccc1-n1nc(C(F)(F)F)cc1-c1ccc2c(c1)NC(=O)CO2	> 10000 nM	4900 nM	2500 nM	80 nM	150 nM	–	–
Cc1cc(F)ccc1-n1nc(C(F)(F)F)cc1-c1cc(C)c2c(c1)NC(=O)CO2	> 10000 nM	2400 nM	470 nM	21 nM	15 nM	–	–
O=C1COc2ccc(-c3c(C(F)(F)F)cnn3-c3ccc(F)cc3)cc2N1	–	–	–	2700 nM	–	–	–
Cc1cc(F)ccc1-n1nc(C(F)(F)F)cc1-c1cc(F)c2c(c1)NC(=O)CO2	> 10000 nM	1800 nM	1700 nM	76 nM	85 nM	–	–
Cc1ccc(-n2nc(C(F)(F)F)cc2-c2ccc3c(c2)NC(=O)CO3)cc1	–	–	–	590 nM	–	–	–
O=C1COc2ccc(-c3cc(C(F)(F)F)nn3-c3ccc(F)cc3)cc2N1	–	–	–	260 nM	–	24 µL/min/mg	28%
O=C1COc2ccc(-c3cc(C(F)(F)F)nn3-c3cccc(F)c3)cc2N1	–	–	–	1100 nM	–	–	–
O=C1COc2ccc(C3=Nc4ccccc4SC3c3ccccc3)cc2N1 (configuration not stated)	1200 nM	1400 nM	950 nM	69 nM	–	–	–
Cc1cc(F)ccc1-n1nc(C(F)(F)F)cc1-c1cc(Cl)c2c(c1)NC(=O)CO2	4500 nM	930 nM	200 nM	12 nM	70 nM	–	–
O=C1COc2ccc(-c3cc(C(F)(F)F)nn3-c3ccccc3F)cc2N1	–	–	–	440 nM	–	–	–
O=C1COc2ccc(-c3cc(C(F)(F)C(F)(F)F)nn3-c3ccc(F)cc3)cc2N1	–	–	–	570 nM	–	–	–

Results, then the molecule that gave them:

IC50 (Androgen receptor)	IC50 (Progesterone receptor)	IC50 (Glucocorticoid receptor)	IC50 [1]	IC50 [2]	microsomal CLint at 1 µM [3]	bioavailability [4]	Compound
5900 nM	> 10000 nM	5500 nM	600 nM	–	–	–	O=C1COc2ccc(C3=Nn4cnnc4SC3c3ccccc3F)cc2N1 (configuration not stated)
–	–	–	920 nM	–	–	–	N#Cc1cc(-c2ccc3c(c2)NC(=O)CO3)n(-c2ccc(F)cc2)n1
–	–	–	> 10000 nM	–	–	–	Cc1nc(-c2ccc3c(c2)NC(=O)CO3)c(-c2ccccc2)[nH]1
–	–	–	960 nM	–	–	–	CCc1cc(-c2ccc3c(c2)NC(=O)CO3)n(-c2ccc(F)cc2)n1
–	–	–	700 nM	–	–	–	CCc1ccccc1-n1nc(C(F)(F)F)cc1-c1ccc2c(c1)NC(=O)CO2
95 nM	350 nM	3500 nM	36 nM	–	–	–	O=C1COc2ccc(C3=Nn4ccnc4SC3c3ccccc3)cc2N1 (configuration not stated)
> 10000 nM	> 10000 nM	> 10000 nM	270 nM	–	60 µL/min/mg	–	O=C1COc2ccc(C3=Nn4cnnc4SC3c3ccc(F)cc3)cc2N1 (configuration not stated)
–	–	–	> 10000 nM	–	–	–	CC(C)c1cc(-c2ccc3c(c2)NC(=O)CO3)n(-c2ccc(F)cc2)n1
–	–	–	1300 nM	–	–	–	O=C1COc2ccc(C3=Nn4cnnc4SC3Cc3ccccc3)cc2N1 (configuration not stated)
4700 nM	> 10000 nM	> 10000 nM	310 nM	–	–	–	O=C1COc2ccc(C3=Nn4cnnc4SC3c3cccc(F)c3)cc2N1 (configuration not stated)
–	–	–	> 10000 nM	–	–	–	CC1(c2ccccc2)Sc2nncn2N=C1c1ccc2c(c1)NC(=O)CO2 (configuration not stated)
> 10000 nM	1600 nM	> 10000 nM	2000 nM	–	–	–	O=C1COc2ccc(C3=Nn4cnnc4SC3)cc2N1
> 10000 nM	> 10000 nM	6900 nM	1100 nM	–	164 µL/min/mg	–	Cc1cc(-c2ccc3c(c2)NC(=O)CO3)n(-c2ccc(F)cc2)n1
> 10000 nM	> 10000 nM	> 10000 nM	5300 nM	–	–	–	Cc1cc(-c2ccc3c(c2)NC(=O)CO3)n(-c2ccccc2)n1
–	–	–	> 10000 nM	–	–	–	Cc1nc(-c2ccc3c(c2)NC(=O)CO3)c(-c2ccccc2)s1
–	–	–	6800 nM	–	–	–	O=C1COc2ccc(-c3cc(CO)nn3-c3ccc(F)cc3)cc2N1
3600 nM	> 10000 nM	5600 nM	–	–	–	–	O=C1COc2ccc(C3=Nn4cnnc4SC3c3ccccc3)cc2N1 (configuration not stated)
–	–	–	4100 nM	–	–	–	CCCC1Sc2nncn2N=C1c1ccc2c(c1)NC(=O)CO2 (configuration not stated)
